# Measured values published in PMC6130628, “Some pharmacokinetic parameters of salvianolic acid A following single-dose oral administration to rats” (Pharmaceutical Biology, 2018).
# “Also recorded” adds a separate entry of the source. Like-named read-outs stand apart in the source and are kept apart here.
# Assays:
# [1] = design: method as in Sun et al. [2013]; settings: Beagle dogs, oral, pure form; ref Sun et al. [2013]; cited from earlier work
# [2] = design: method as in Pei et al. [2008]; settings: oral administration at 100 mg/kg; ref Pei et al. [2008]; cited from earlier work
# [3] = cited from earlier work
# [4] = Bidirectional transport experiments in the Caco-2 cell culture model; type: in vitro ADME; settings: human; for Papp A→B at 180 min: read-out: Papp Apical → basolateral; for Papp B→A at 180 min: read-out: Papp Basolateral → apical
# Experimental: (§1) Caco-2 cells (passage number 34–36, American Type Culture Collection, Manassas, VA) were cultured at 37 °C in an atmosphere of 5% CO2 and 90% relative humidity in Dulbecco’s modified Eagle’s medium supplemented with 10% fetal bovine serum, 1% penicillin–streptomycin, 1% HEPES, 1% sodium pyruvate and 1% minimal essential medium nonessential amino acids. After harvesting at 90% confluence, the cells were seeded on to 0.4 μm polycarbonate membrane transwell inserts (12 mm diameter) at a density of 1.5 × 10^5 cells/cm^2. The culture media was changed every other day during the first 7 days after seeding and once a day thereafter. Cell monolayers were ready for experiments from 20 to 24 days postseeding.
# (§2) Experiments in triplicate were performed in HBSS (pH =7.4).To ensure the stability of Sal A in HBSS, VC was applied in this study as stabilizer. The monolayers were washed three times with prewarmed HBSS (37 °C) before use. The integrity of the Caco-2 monolayers was monitored by measuring the transepithelial electrical resistance, and only monolayers with values ≥400 Ω/cm^2 were used. The monolayers were incubated with HBSS at 37 °C for 30 min, and then the incubation medium was aspirated. Afterwards, bidirectional transport experiments were conducted. Sal A solution of appropriate concentrations in HBSS (containing VC 1 0^−4 mol/L) were loaded to the donor compartments and the blank HBSS (containing VC 1 0^−4 mol/L) was added to the receiver compartments. Seven sequential samples (50 μL) were collected at different times (0, 30, 60, 90, 120, 150, 180 min) from the receiver side. The same volume of receiver medium was replaced after each sampling. The collected samples were added into tubes with 40 μL MeOH–H2O (50:50, v/v, containing VC 100 μg/mL). Then, 10 μL of the IS spiking solution (butyl paraben, 1 μg/mL) was added. After centrifugation at 13,400 rpm for 5 min, 20 μL of the supernatant was injected to the LC–MS system.
# (§3) Influence of the stabilizer on the transport of Sal A has also been tested under the condition of different concentrations of VC. The samples were collected, treated and analyzed according to the same procedure.
# (§4) The apparent permeability coefficient (Papp) was calculated according to the following equation: Papp=(ΔQ/Δt)/(A×C0) where ΔQ/Δt is the linear appearance rate of the tested compound in the receiver compartments, A is the surface area of the cell monolayer and C0 is the initial concentration of the tested compound in the donor side.
# Caco-2 cell monolayer = assay: as above; type: in vitro ADME
# Experimental: as §1, §2, §3, §4
# [5] = Tissue distribution of Sal A in rats; type: in vivo, Sprague-Dawley rats; settings: single oral dose 5 mg/kg
# Experimental: Twenty-four healthy, intact Sprague–Dawley rats (male/female, 1/1, 185–215 g, Certificate No. SCXK 2006-0009) were purchased from Vital River Laboratories (Beijing, China). The rats were maintained in air-conditioned animal quarters with alternating 12 h light/dark cycles at a room temperature of 22 ± 2 °C and a relative humidity of 50 ± 10%. The rodents were given a commercial rat chow and water ad libitum. The experiment started after acclimation to the facilities for 7 days. The animal protocols used in this study followed guidelines set forth by the Ethic Committee of Laboratory Animals of the Affiliated Hospital of Qingdao University (QYFYKYLL 2013-2-4-01).
# Rats were fasted overnight (∼12 h) and had free access to water throughout the experimental period. In our study, rats were treated as followed: 18 rats were divided into 3 groups randomly (6 rats/group, male/female =1/1) and were all given a single oral dose of 5 mg/kg. The animals were sacrificed 10 min, 1 and 2 h postdosing and stomach, small intestine, heart, liver, spleen, lung, kidney and brain were harvested for drug analysis. The remaining six rats were given normal saline as control. Tissue samples were frozen and maintained at –80 °C immediately until analysis.
# Tissues were homogenized in normal saline (2 mL/g, except 6 mL/g for stomach) using a FLUKO F6/10 for 1–2 min over an ice bath. The aliquots of 200 μL homogenized tissues were used for the LC–MS analysis. The remaining steps were the same as sample preparation in “Pharmacokinetic study in vivo”.
# [6] = Caco-2, pH 7.4, Sal A 10^–4/3 mol/L, HBSS pH 7.4, VC 10^−4 mol/L
# [7] = Caco-2, pH 7.4, Sal A 10^–4/9 mol/L, HBSS pH 7.4, VC 10^–4 mol/L
# [8] = Caco-2, pH 7.4, Sal A 10^–4/9 mol/L, VC 10^–3/3 mol/L
# [9] = Caco-2, pH 7.4, Sal A 10^–4/9 mol/L, VC 10^–3 mol/L
# [10] = Caco-2, pH 7.4, Sal A 10^–4/27 mol/L, HBSS pH 7.4, VC 10^−4 mol/L
smiles,measurement,setting,value
"O=C(/C=C/c1ccc(O)c(O)c1/C=C/c1ccc(O)c(O)c1)O[C@H](Cc1ccc(O)c(O)c1)C(=O)O [Sal A, Salvianolic acid A]",absolute bioavailability,[1],1.25%
same,plasma half-life,[2],3.29 h
same,stability in intestinal alkaline environment,"[3]; alkaline environment, ref Liu et al. [2011]",instability
same,stability in distilled water,"[3]; distilled water, room temperature, ref Xu et al. [2008]",instable
same,Papp A→B at 180 min,[4]; [6],0.156 ± 0.0412 ×10⁻⁶ cm/s
same,Papp B→A at 180 min,[4]; [6],0.508 ± 0.0118 ×10⁻⁶ cm/s
same,Papp A→B at 180 min,[4]; [7],0.152 ± 0.0055 ×10⁻⁶ cm/s
same,Papp B→A at 180 min,[4]; [7],0.605 ± 0.0175 ×10⁻⁶ cm/s
same,Papp A→B at 180 min,[4]; [8],0.155 ± 0.003 ×10⁻⁶ cm/s
same,Papp B→A at 180 min,[4]; [8],0.507 ± 0.087 ×10⁻⁶ cm/s
same,Papp A→B at 180 min,[4]; [9],0.153 ± 0.0028 ×10⁻⁶ cm/s
same,Papp B→A at 180 min,[4]; [9],0.478 ± 0.0453 ×10⁻⁶ cm/s
same,Papp A→B at 180 min,[4]; [10],0.641 ± 0.0576 ×10⁻⁶ cm/s
same,Papp B→A at 180 min,[4]; [10],0.987 ± 0.121 ×10⁻⁶ cm/s
same,efflux ratio at 180 min,"[4]; pH 7.4, Caco-2 monolayer, read-out: ratio of PB–A to PA–B (Papp basolateral to apical / apical to basolateral)",~3
same,influence of VC concentration on the amount of Sal A transported,"Caco-2 cell monolayer; different VC concentrations, p> 0.05",no significant difference
same,membrane permeability (classification by Papp),Caco-2 cell monolayer; poorly absorbed: Papp <1 × 10^−6 cm/s,poor membrane permeability
same,presence in brain homogenate,[5],detected in brain homogenate
same,time to distribute into tissues,[5],≤ 10 min
same,tissue with highest concentration,"[5]; 10 min, 1 and 2 h, 5 mg/kg",stomach followed by small intestine and liver; also recorded: highest tissue concentration was found in stomach
